According to PMC3821218 (Structure (London, England : 1993), 2013):
Marks after values point to notes of the source that are not given here.

What was measured:
[1] = target: T1, RR468 (Thermotoga maritima, UniProt Q9WYT9, V13P/L14I/I17M/N21V); conditions: free RR468*; phosphomimetic; NaF/BeSO4/MgCl2, pH 4.6
[2] = target: T1, RR468; assay: autophosphorylation from […]acetyl phosphate; type: biochemical; conditions: labelled compound; 5 mM MgCl2, pH 8.0, room temperature, 1 hour
[3] = target: the molecule itself; assay: crystal structure

## [F][Be-]([F])[F] [BeF3^−]
[1]
  X-ray crystal structure, 1.80 Å: the free forms of HK853* (HKf*) bound to ADP and RR468* (RRf*) bound to BeF3^−

## CC(=O)OP(=O)(O)O [acetyl-phosphate]
[2]
  autophosphorylation from [32P]acetyl phosphate: RR468* autophosphorylates more poorly than RR468 using this method

B1: HK853, wild type, cytoplasmic portion (enzyme, Thermotoga maritima)
chain: VENVTESKELERLKRIDRMKTEFIANISHELRTPLTAIKAYAETIYNSLGELDLSTLKEFLEVIIDQSNHLENLLNELLDFSRLERKSLQINREKVDLCDLVESAVNAIKEFASSHNVNVLFESNVPCPVEAYIDPTRIRQVLLNLLNNGVKYSKKDAPDKYVKVILDEKDGGVLIIVEDNGIGIPDHAKDRIFEQFYRVDSSLTYEVPGTGLGLAITKEIVELHGGRIWVESEVGKGSRFFVWIPKDRAGEDNRQDN
[3]
  stoichiometry N: 2
